# pIC50: −log10 of the molar value.
# Target: HIS-TGFβR1 T204D (Homo sapiens (Human), UniProt P36897, T204D)
# Experiment: HTRF probe-displacement assay, HIS-TGFβR1 T204D
# Assay type: binding
# Settings: 1 hour at room temperature
# HIS-TGFβR1 T204D, sequence (P36897 34-503 T204D): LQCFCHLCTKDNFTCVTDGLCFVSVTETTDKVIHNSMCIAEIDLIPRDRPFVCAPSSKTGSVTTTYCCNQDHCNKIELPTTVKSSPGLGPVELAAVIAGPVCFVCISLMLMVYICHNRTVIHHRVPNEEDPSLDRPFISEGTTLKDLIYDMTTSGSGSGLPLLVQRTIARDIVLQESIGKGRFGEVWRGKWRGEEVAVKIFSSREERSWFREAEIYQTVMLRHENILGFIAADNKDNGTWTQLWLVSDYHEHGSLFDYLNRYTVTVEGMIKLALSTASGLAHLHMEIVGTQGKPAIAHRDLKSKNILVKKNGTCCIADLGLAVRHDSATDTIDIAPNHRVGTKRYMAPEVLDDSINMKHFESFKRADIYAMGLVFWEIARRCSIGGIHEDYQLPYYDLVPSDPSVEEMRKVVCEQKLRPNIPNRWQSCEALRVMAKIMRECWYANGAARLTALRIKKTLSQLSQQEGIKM
row,pIC50,Compound
1,5.18,"COc1cccc(-c2nc(Nc3ccnc(NCC(C)(C)O)c3)c3c(C)ccn3n2)n1 [Example 138, 1-[(4-{[2-(6-methoxypyridin-2-yl)-5-methylpyrrolo[2,1-f][1,2,4]triazin-4-yl]amino}pyridin-2-yl)amino]-2-methylpropan-2-ol]"
2,8.80,"Nc1cccc(-c2nc(Nc3ccncc3F)c3cccn3n2)n1 [Example 53, 2-(6-aminopyridin-2-yl)-N-(3-fluoropyridin-4-yl)pyrrolo[2,1-f][1,2,4]triazin-4-amine]"
3,7.21,"O=C(N[C@H]1CCC[C@@H]1O)c1cnccc1Nc1nc(-c2cccc(C(F)F)n2)nn2cccc12 [Example 199, 4-({2-[6-(difluoromethyl)pyridin-2-yl]pyrrolo[2,1-f][1,2,4]triazin-4-yl}amino)-N-[(1S,2S)-2-hydroxycyclopentyl]pyridine-3-carboxamide]"
4,8.64,"CC(C)(O)CNCc1ccn2nc(-c3cccc(C(F)F)n3)nc(Nc3ccncc3F)c12 [Example 116, 1-[({2-[6-(difluoromethyl)pyridin-2-yl]-4-[(3-fluoropyridin-4-yl)amino]pyrrolo[2,1-f][1,2,4]triazin-5-yl}methyl)amino]-2-methylpropan-2-ol]"
5,8.29,"O=C(CC(F)(F)F)Nc1cc(Nc2nc(-c3cccc(C(F)(F)F)n3)nn3cccc23)ccn1 [Example 344, 3,3,3-trifluoro-N-[4-({2-[6-(trifluoromethyl)pyridin-2-yl]pyrrolo[2,1-f][1,2,4]triazin-4-yl}amino)pyridin-2-yl]propanamide]"
6,9.08,"OC[C@@H](O)CNCc1ccn2nc(-c3ccccn3)nc(Nc3ccncc3F)c12 [Example 287, (2S)-3-[({4-[(3-fluoropyridin-4-yl)amino]-2-(pyridin-2-yl)pyrrolo[2,1-f][1,2,4]triazin-5-yl}methyl)amino]propane-1,2-diol]"
7,8.04,"Fc1cnccc1Nc1nc(-c2ccccn2)nn2ccc(CNC3CCNCC3)c12 [Example 307, 3-fluoro-N-(5-{[(piperidin-4-yl)amino]methyl}-2-(pyridin-2-yl)pyrrolo[2,1-f][1,2,4]triazin-4-yl)pyridin-4-amine]"
8,7.96,"FC(F)c1cnccc1Nc1nc(-c2cccc(C(F)(F)F)n2)nn2cccc12 [Example 2, 3-(difluoromethyl)-N-{2-[6-(trifluoromethyl)pyridin-2-yl]pyrrolo[2,1-f][1,2,4]triazin-4-yl}pyridin-4-amine]"
9,7.38,"O=C(NCc1ccn[nH]1)c1cnccc1Nc1nc(-c2cccc(C(F)F)n2)nn2cccc12 [Example 197, 4-({2-[6-(difluoromethyl)pyridin-2-yl]pyrrolo[2,1-f][1,2,4]triazin-4-yl}amino)-N-(1H-pyrazol-5-ylmethyl)pyridine-3-carboxamide]"
10,9.08,"CC(=O)Nc1cc(Nc2nc(-c3ccc(F)c(C)n3)nn3cccc23)ccn1 [Example 19, N-(4-{[2-(5-fluoro-6-methylpyridin-2-yl)pyrrolo[2,1-f][1,2,4]triazin-4-yl]amino}pyridin-2-yl)acetamide]"
11,5.92,"O=C(c1cnccc1Nc1nc(-c2cccc(C(F)F)n2)nn2cccc12)N1CCC(O)(c2ccccc2)CC1 [Example 185, 1-[4-({2-[6-(difluoromethyl)pyridin-2-yl]pyrrolo[2,1-f][1,2,4]triazin-4-yl}amino)pyridine-3-carbonyl]-4-phenylpiperidin-4-ol]"
12,8.96,"Fc1cnccc1Nc1nc(-c2ccccn2)nn2ccc(CNCC(F)(F)F)c12 [Example 268, 3-fluoro-N-[2-(pyridin-2-yl)-5-{[(2,2,2-trifluoroethyl)amino]methyl}pyrrolo[2,1-f][1,2,4]triazin-4-yl]pyridin-4-amine]"
13,8.92,"OC12C[C@H]3C[C@@H](C1)CC(NCc1ccn4nc(-c5ccccn5)nc(Nc5ccncc5F)c14)(C3)C2 [Example 237, (5R,7S)-3-[({4-[(3-fluoropyridin-4-yl)amino]-2-(pyridin-2-yl)pyrrolo[2,1-f][1,2,4]triazin-5-yl}methyl)amino]adamantan-1-ol]"
14,8.80,"COCC(=O)Nc1cc(Nc2nc(-c3cccc(C(F)(F)F)n3)nn3cccc23)ccn1 [Example 336, 2-methoxy-N-[4-({2-[6-(trifluoromethyl)pyridin-2-yl]pyrrolo[2,1-f][1,2,4]triazin-4-yl}amino)pyridin-2-yl]acetamide]"
15,7.72,O=C(NCCN1CCCC1)c1cnccc1Nc1nc(-c2ccccn2)nn2cccc12 [Example 142]
16,8.49,"O[C@H]1CC[C@H](NCc2ccn3nc(-c4ccccn4)nc(Nc4ccncc4F)c23)CC1 [Example 288, (1R,4R)-4-[({4-[(3-fluoropyridin-4-yl)amino]-2-(pyridin-2-yl)pyrrolo[2,1-f][1,2,4]triazin-5-yl}methyl)amino]cyclohexan-1-ol]"
17,8.96,"FC(F)c1cccc(-c2nc(Nc3ccncc3Cl)c3cccn3n2)n1 [Example 80, 3-chloro-N-{2-[6-(difluoromethyl)pyridin-2-yl]pyrrolo[2,1-f][1,2,4]triazin-4-yl}pyridin-4-amine]"

row,pIC50,Compound
1,8.80,"CC(C)(O)CNCc1ccn2nc(-c3ccccn3)nc(Nc3ccncc3F)c12 [Example 125, 1-[({4-[(3-fluoropyridin-4-yl)amino]-2-(pyridin-2-yl)pyrrolo[2,1-f][1,2,4]triazin-5-yl}methyl)amino]-2-methylpropan-2-ol]"
2,9.03,"Cc1cccc(-c2nc(Nc3ccncc3F)c3c(CN4CCN(CCO)CC4)ccn3n2)n1 [Example 259, 2-[4-({4-[(3-fluoropyridin-4-yl)amino]-2-(6-methylpyridin-2-yl)pyrrolo[2,1-f][1,2,4]triazin-5-yl}methyl)piperazin-1-yl]ethan-1-ol]"
3,7.49,"COc1cccc(-c2nc(Nc3ccncc3F)c3c(C(C)(C)O)ccn3n2)n1 [Example 48, 2-{4-[(3-fluoropyridin-4-yl)amino]-2-(6-methoxypyridin-2-yl)pyrrolo[2,1-f][1,2,4]triazin-5-yl}propan-2-ol]"
4,5.77,"COc1cccc(-c2nc(Nc3ccncc3F)c3cc(CNCC(C)(C)O)cn3n2)n1 [Example 207, 1-[({4-[(3-fluoropyridin-4-yl)amino]-2-(6-methoxypyridin-2-yl)pyrrolo[2,1-f][1,2,4]triazin-6-yl}methyl)amino]-2-methylpropan-2-ol]"
5,7.04,"CC(C)(C)CC(=O)Nc1cc(Nc2nc(-c3cccc(C(F)(F)F)n3)nn3cccc23)ccn1 [Example 321, 3,3-dimethyl-N-[4-({2-[6-(trifluoromethyl)pyridin-2-yl]pyrrolo[2,1-f][1,2,4]triazin-4-yl}amino)pyridin-2-yl]butanamide]"
6,6.17,"COc1cccc(-c2nc(Nc3ccncc3COCCCN3CCOCC3)c3cccn3n2)n1 [Example 38, N-[2-(6-methoxypyridin-2-yl)pyrrolo[2,1-f][1,2,4]triazin-4-yl]-3-{[3-(morpholin-4-yl)propoxy]methyl}pyridin-4-amine]"
7,8.11,"Cc1cccc(-c2nc(Nc3ccncc3)c3cc(C(=O)Nc4ccccc4)cn3n2)n1 [Example 217, 2-(6-methylpyridin-2-yl)-N-phenyl-4-[(pyridin-4-yl)amino]pyrrolo[2,1-f][1,2,4]triazine-6-carboxamide]"
8,7.10,"CC(=O)Nc1nccc(Nc2nc(-c3cccc(C(F)(F)F)n3)nn3cccc23)c1F [Example 20, N-[3-fluoro-4-({2-[6-(trifluoromethyl)pyridin-2-yl]pyrrolo[2,1-f][1,2,4]triazin-4-yl}amino)pyridin-2-yl]acetamide]"
9,6.89,"Cc1cccc(-c2nc(Nc3ccncc3)c3cc(C(=O)N(C)C)cn3n2)n1 [Example 218, N,N-dimethyl-2-(6-methylpyridin-2-yl)-4-[(pyridin-4-yl)amino]pyrrolo[2,1-f][1,2,4]triazine-6-carboxamide]"
10,7.80,"CCc1cc2c(Nc3ccncc3F)nc(-c3cccc(OC)n3)nn2c1 [Example 29, 6-ethyl-N-(3-fluoropyridin-4-yl)-2-(6-methoxypyridin-2-yl)pyrrolo[2,1-f][1,2,4]triazin-4-amine]"
11,7.82,"CCOc1cccc(-c2nc(Nc3ccncc3F)c3cccn3n2)n1 [Example 102, N-[2-(6-ethoxypyridin-2-yl)pyrrolo[2,1-f][1,2,4]triazin-4-yl]-3-fluoropyridin-4-amine]"
12,8.37,"O=C(c1cnccc1Nc1nc(-c2cccc(C(F)F)n2)nn2cccc12)N1CCC1 [Example 189, 3-(azetidine-1-carbonyl)-N-{2-[6-(difluoromethyl)pyridin-2-yl]pyrrolo[2,1-f][1,2,4]triazin-4-yl}pyridin-4-amine]"
13,9.07,"CC(=O)N1CCN(CC(=O)Nc2cc(Nc3nc(-c4cccc(C(F)(F)F)n4)nn4cccc34)ccn2)CC1 [Example 320, 2-(4-acetylpiperazin-1-yl)-N-[4-({2-[6-(trifluoromethyl)pyridin-2-yl]pyrrolo[2,1-f][1,2,4]triazin-4-yl}amino)pyridin-2-yl]acetamide]"
14,7.59,"O=C(NCc1cocn1)c1cnccc1Nc1nc(-c2cccc(C(F)F)n2)nn2cccc12 [Example 195, 4-({2-[6-(difluoromethyl)pyridin-2-yl]pyrrolo[2,1-f][1,2,4]triazin-4-yl}amino)-N-(1,3-oxazol-4-ylmethyl)pyridine-3-carboxamide]"
15,6.64,"CC(C)(C)OC(=O)CNC(=O)c1cnccc1Nc1nc(-c2cccc(C(F)F)n2)nn2cccc12 [Example 196, tert-butyl 2-{[4-({2-[6-(difluoromethyl)pyridin-2-yl]pyrrolo[2,1-f][1,2,4]triazin-4-yl}amino)pyridin-3-yl]formamido}acetate]"
16,6.92,"COc1cccc(-c2nc(Nc3ccnc(NCCN4CCOCC4)c3)c3c(C)ccn3n2)n1 [Example 137, 4-N-[2-(6-methoxypyridin-2-yl)-5-methylpyrrolo[2,1-f][1,2,4]triazin-4-yl]-2-N-[2-(morpholin-4-yl)ethyl]pyridine-2,4-diamine]"
17,> 9.12,"Cc1ccc(F)c(-c2nc(Nc3ccncc3F)c3cccn3n2)n1 [Example 261, 3-fluoro-N-[2-(3-fluoro-6-methylpyridin-2-yl)pyrrolo[2,1-f][1,2,4]triazin-4-yl]pyridin-4-amine]"

# — patent US10336761B2, “TGFβ receptor antagonist” (BRISTOL-MYERS SQUIBB COMPANY, priority 2015, dated 2019)
